Experimental data as given in PubChem BioAssay AID2060511 (Molecular Pharmacology Branch, DTP, NCI, 2025).
Several values for one entry are separate records, joined by “and”; a condition that tells them apart may be missing. Identical values can stand only once.

Tested on: 422866-222-R5-J1-PDC spheroids with HUVEC/MSC, viability
Assay: Anticancer human tumor 422866-222-R5-J1-PDC patient-derived pancreatic adenocarcinoma cell line growth inhibition [GQUAD]
Conditions: for viability, T/C: stronger effect = lower value
Text: DNA G-quadruplex Stabilizer Agents in Combinations in Complex Spheroids
A high-throughput screen of multi-cell type tumor spheroids was designed to identify active combinations of DNA G-quadruplex stabilizer agents and targeted small molecules. Complex spheroids include a stromal component modeled by human endothelial cells (HUVEC) and fibroblasts modeled by human mesenchymal stem cells (MSCs). The concentration ranges selected for each drug and investigational agent were based upon clinically achievable concentrations if the clinical Cmax of the agent was known.
Compounds. The drugs and investigational agents: pidnarulex (CX-5461; NSC782164), APTO-253 (NSC789042), BRACO-19 (NSC847499), peposertib (NSC802822), ceralasertib (NSC780249), elimusertib (NSC800525), camonsertib (NSC841442), AZD-1390 (NSC803789), olaparib (NSC753686), talazoparib (NSC767125), ART-558 (NSC835418), sotorasib (NSC818433), MRTX-1133 (NSC836407), SN-38 (NSC673596), topotecan (NSC609699), etoposide (NSC141540), doxorubicin (NSC123127), gemcitabine (NSC613327), 5-fluorouracil (NSC19893), paclitaxel (NSC125973), vemurafenib (NSC761431), panobinostat (NSC761190), R-306465 (JNJ-16241199; NSC773264), adavosertib (NSC754352), TP-3654 (NSC805149), carboplatin (NSC241240), KSQ-4279 (NSC840948), and staurosporine (NSC755774) were obtained from the National Cancer Institute (NCI) Developmental Therapeutics Program Chemical Repository (34). The FDA-approved anticancer drug set is available from the NCI Developmental Therapeutics Program. […] The stock solutions were prepared in dimethyl sulfoxide (DMSO, Sigma-Aldrich, St. Louis, MO, cat. D2650) at 800-fold the tested concentration and stored at -70 degrees C prior to their use. All drugs and investigational agents were tested over a range starting from a high concentration at or near the clinical Cmax and decreasing in half-log increments. If the clinical Cmax for an agent had not been determined, the highest concentration tested was 10 microM.
2.3 Cell Culture. All cells were maintained in an incubator at 37 degrees C and 5% CO2 with 95% humidity. The PDC lines were cultured according to standard operating procedures established by the NCI PDMR. All PDCs were thawed and cultured in Matrigel-coated flasks prepared with a working solution of 1X Ham's F-12 nutrient mix, without supplementation (Invitrogen, cat. 11765054), 100 U/mL penicillin-streptomycin (Invitrogen, cat. 15140122), and 2.5% Matrigel (Corning Inc., cat. 354248) for the first three passages. The 857933-349-R-J2-PDC line was cultured in 6C/Colon 1B media, which includes advanced DMEM/F-12 (Thermo Fisher Scientific, cat. 12634028), 10 mM HEPES (Thermo Fisher Scientific, cat. 15630080), 1X GlutaMAX supplement (Thermo Fisher Scientific, cat. 35050061), 0.1 mg/mL primocin (InvivoGen, cat. ant-pm-2), 10% defined fetal bovine serum, heat inactivated (HyClone Laboratories Inc., cat. SH30070.03HI), 50% L-WRN conditioned media (ATCC, cat. CRL-3276), 1.25 mM N-Acetyl-L-cysteine (Sigma-Aldrich, cat. A9165), 10 mM nicotinamide (Sigma-Aldrich, cat. N0636), 1X B-27 supplement (Thermo Fisher Scientific, cat. 17504044), 1X N-2 supplement (Thermo Fisher Scientific, cat. 17502048), 10 microM Y-27632 dihydrochloride (Tocris Bioscience, cat. 1254), and 50 ng/mL human EGF recombinant protein (Thermo Fisher Scientific, cat. PHG0311). The 485176-168-R4-J1-PDC line was cultured in Panc media, which includes all 6C/Colon 1B media components plus 100 ng/mL human FGF-10 (Thermo Fisher Scientific, cat. 100-26), 500 nM SB-431542 (Selleckchem, cat. S1067), and gastrin (Tocris, cat. 3006).
[…]
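Also: spheroids exposed to compounds for seven days before reading.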
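For viability, T/C in this document: percent viability relative to DMSO vehicle control taken as 100%.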

Structure (SMILES)	viability, T/C (compound 0.0316 µM)	viability, T/C (compound 0.1 µM)	viability, T/C (compound 0.316 µM)	viability, T/C (compound 1 µM)	viability, T/C (compound 3.16 µM)	viability, T/C (compound 10 µM)	IC50 (curve of compound)	viability, T/C (compound 0.000999 µM)	viability, T/C (compound 0.00316 µM)	viability, T/C (compound 0.00999 µM)	viability, T/C (compound 0.0999 µM)	IC50 (compound alone, run of 04/22/2024)
C#Cc1c(F)ccc2cc(O)cc(-c3ncc4c(N5CC6CCC(C5)N6)nc(OCC56CCCN5CC(F)C6)nc4c3F)c12 (stereo not given)	98.8% and 99.8% and 86.7%	95.5% and 91.4% and 77.4%	94.1% and 82.6% and 77.7%	60.1% and 79% and 57.5%	41.3% and 43.9% and 36.5%	29.2% and 39.6% and 26.7%	1770 nM and 2700 nM and 1530 nM					
C=CC(=O)N1CCN(c2nc(=O)n(-c3c(C)ccnc3C(C)C)c3nc(-c4c(O)cccc4F)c(F)cc23)C(C)C1 (stereo not given)	36.5% and 39.1% and 37%	32.9% and 29.9% and 28.5%	26.3% and 28.8% and 27.6%	27.3% and 26.2% and 23%	28.3% and 28.8% and 27.6%	29.3% and 30.3% and 27.3%	< 31.6 nM					
C=CCn1c(=O)c2cnc(Nc3ccc(N4CCN(C)CC4)cc3)nc2n1-c1cccc(C(C)(C)O)n1	80.3% and 112% and 88.7%	106% and 90.1% and 74.5%	125% and 67.2% and 52.5%	143% and 39.7% and 40.5%	172% and 31.3% and 30.6%	99.8% and 32.3% and 27.9%						
CC(=O)O[C@H]1C(=O)[C@@]2(C)[C@H]([C@H](OC(=O)c3ccccc3)[C@]3(O)C[C@H](OC(=O)[C@H](O)[C@@H](NC(=O)c4ccccc4)c4ccccc4)C(C)=C1C3(C)C)[C@]1(OC(C)=O)CO[C@@H]1C[C@@H]2O	96% and 75.6% and 77.1%	89.9% and 64.8% and 64.4%	82.1% and 66.5% and 76.9%	47.7% and 68.6% and 75.5%	39.7% and 75% and 67.1%		1460 nM and > 10000 nM					
CC(C)(O)C1CCC(Nc2ccc3ncc(-c4cccc(C(F)(F)F)c4)n3n2)CC1 (stereo not given)	94.3% and 83.6% and 92%	82.7% and 87.6% and 89.7%	73.7% and 75.8% and 103%	47.5% and 75.1% and 71%	35% and 31.5% and 45%	24.6% and 32.1% and 50.8%	1000 nM and 1950 nM and 2840 nM					
CC(C)n1c(=O)n(C)c2cnc3cc(F)c(-c4ccc(OCCCN5CCCCC5)nc4)cc3c21	99.2% and 87.6% and 100%	80.5% and 101% and 90.1%	110% and 104% and 113%	97.4% and 95.7% and 97.5%	85.5% and 89.8% and 90.1%	58.6% and 62.1% and 64.2%	> 10000 nM					
CC1COCCN1c1cc(-c2ccnn2C)c2ccnc(-c3ccn[nH]3)c2n1 (stereo not given)	80.3% and 71.6% and 81.9%	63.1% and 61.5% and 48.7%	47.8% and 50% and 45.2%	45% and 40.2% and 45.6%	63.9% and 81.7% and 45%	81.2% and 80.8% and 88.8%						
CC1COCCN1c1cc(C2(O)CC3CCC(C2)O3)c2cnn(-c3ccn[nH]3)c2n1 (stereo not given)	79.2% and 81.7% and 79.9%	44.1% and 40% and 47.8%	42.2% and 37.5% and 56.3%	57.8% and 66.2% and 79.9%	89.3% and 91.2% and 80.4%	90.9% and 96% and 90.3%	> 10000 nM					
CC1COCCN1c1cc(C2(S(C)(=N)=O)CC2)nc(-c2ccnc3[nH]ccc23)n1 (stereo not given)	81.8% and 101% and 93.1%	90.2% and 107% and 98.3%	105% and 97.1% and 114%	70.9% and 82.1% and 91.5%	43% and 44.8% and 50.8%	38% and 39.5% and 36.4%	2210 nM and 2770 nM and 3240 nM					
CCCS(=O)(=O)Nc1ccc(F)c(C(=O)c2c[nH]c3ncc(-c4ccc(Cl)cc4)cc23)c1F	96.7% and 101% and 93.4%	99.6% and 95.4% (2×)	60% and 140% and 121%	45.6% and 153% and 136%	32.6% and 184% and 167%	32.6% and 108% and 52.1%						
CC[C@@]1(O)C(=O)OCc2c1cc1n(c2=O)Cc2cc3c(CN(C)C)c(O)ccc3nc2-1	75.4% and 74.9% and 70.9%		42.4% and 50.6% and 38.1%				80.8 nM and 258 nM and 67.7 nM	83.5% and 106% and 100%	90.9% and 90.2% and 96.4%	95.7% and 88.8% and 103%	45.5% and 52.7% and 40.6%	
CCc1c2c(nc3ccc(O)cc13)-c1cc3c(c(=O)n1C2)COC(=O)[C@]3(O)CC	36.8% and 46.3% and 25.2%		34% and 43.8% and 29.1%				< 0.999 nM and 1.17 nM and 1.64 nM	53.2% and 55.8% and 56.2%	38.6% and 47.6% and 39.6%	42.5% and 37.8% and 43.5%	33.3% and 47.4% and 35.1%	
CN(C)c1ccc(Nc2c3ccc(NC(=O)CCN4CCCC4)cc3nc3cc(NC(=O)CCN4CCCC4)ccc23)cc1	96.4% [middle of 12 runs]	96.8% [middle of 12 runs]		90.4% [middle of 12 runs]	96% [middle of 12 runs]							> 10000 nM
